Test results taken from patent US20260083865A1, “PROSTATE SPECIFIC MEMBRANE ANTIGEN (PSMA) LIGANDS AND USE THEREOF” (priority 2022, published 2026).
Numbered stars: 1 amine (or outer) side, 2 acyl side, 3 side chain; on linkers, the order of the positions; unused ones are H or OH. Bridge positions count the residues as written; N and C are the ends. Square brackets hold non-standard residues; d marks the D form. Peptide text beside a SMILES is read from it. * marks the point of attachment. X3 = O=C(O)CN1CCN(CC(=O)O)CCN(CC(=O)NCCCOCCOCCOCCCN*)CCN(CC(=O)O)CC1; DOTA = O=C(O)CN1CCN(CC(=O)O)CCN(CC(=O)*)CCN(CC(=O)O)CC1; Phe(3-CF3) = N[C@@H](Cc1cccc(C(F)(F)F)c1)C(=O)O; Phe(4-Cl) = N[C@@H](Cc1ccc(Cl)cc1)C(=O)O; X4 = O=C(CN1CCC(N[*:1])CC1)[*:2]; X1 = O=C(CC1CCN([*:1])CC1)[*:2]; Suc = O=C(CCC(=O)[*:2])[*:1]; Tle = CC(C)(C)[C@H](N)C(=O)O; Pyridin(2-yl) = c1ccc(*)nc1; Orn = NCCC[C@H](N)C(=O)O; Aib = CC(C)(N)C(=O)O; CO = O=C([*:1])[*:2]; NHBu = CCCCN*

How the values were obtained:
[1] = molecular target: T1, PSMA-expressing C4-2 cells (Homo sapiens, UniProt Q04609); assay: FACS binding assay (competition with 50 nM PSM-0183); conditions: FACS binding, C4-2 cells, competition with 50 nM PSM-0183; category; read-out: pIC50 [C4-2] CAT (converted)
T1 construct: PSMA-expressing C4-2 cells (ATCC, Cat. No. CRL-3314) were cultured in RPMI-1640; host or cells: C4-2 cells
T1 sequence (Q04609 whole entry): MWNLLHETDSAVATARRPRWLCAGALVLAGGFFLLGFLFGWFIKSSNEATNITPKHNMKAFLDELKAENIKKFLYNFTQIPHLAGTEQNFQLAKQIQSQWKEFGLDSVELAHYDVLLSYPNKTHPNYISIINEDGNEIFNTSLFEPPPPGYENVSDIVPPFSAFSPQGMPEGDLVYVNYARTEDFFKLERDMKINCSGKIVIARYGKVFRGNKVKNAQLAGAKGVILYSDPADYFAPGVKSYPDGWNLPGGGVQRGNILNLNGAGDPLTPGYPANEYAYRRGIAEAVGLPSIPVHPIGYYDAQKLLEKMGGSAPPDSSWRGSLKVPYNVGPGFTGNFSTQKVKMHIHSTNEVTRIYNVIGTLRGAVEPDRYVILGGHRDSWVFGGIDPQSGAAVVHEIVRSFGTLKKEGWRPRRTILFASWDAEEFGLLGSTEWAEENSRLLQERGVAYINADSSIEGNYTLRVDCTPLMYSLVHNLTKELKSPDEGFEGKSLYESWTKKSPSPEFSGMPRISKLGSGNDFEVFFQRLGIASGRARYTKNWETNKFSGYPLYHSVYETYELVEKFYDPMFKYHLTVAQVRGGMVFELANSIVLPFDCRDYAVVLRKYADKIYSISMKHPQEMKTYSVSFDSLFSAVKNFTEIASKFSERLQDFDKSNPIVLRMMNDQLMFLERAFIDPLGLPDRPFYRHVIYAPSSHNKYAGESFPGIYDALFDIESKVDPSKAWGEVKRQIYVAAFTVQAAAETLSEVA
Outline: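 Competition format: fluorescent tracer PSM-0183 (50 nM) displaced from PSMA on C4-2 cells by a test compound titration over 1 h at 4 °C. Bound tracer was quantified as flow-cytometric AF488 median fluorescence after washing. Four-parameter logistic fits of MFI data gave IC50 and pIC50.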

[2] = molecular target: T2, Fc-fusion protein of human PSMA (hPSMA-Fc) (Homo sapiens, UniProt Q04609); assay: Surface plasmon resonance assay (Biacore T200, single cycle kinetic); type: binding; conditions: SPR, hPSMA-Fc, single cycle kinetic, 25° C.; category; read-out: pKD CAT (converted)
T2 construct: purchased Acro Biosystems PSA-H5264
T2 sequence (Q04609 44-750 limits assumed): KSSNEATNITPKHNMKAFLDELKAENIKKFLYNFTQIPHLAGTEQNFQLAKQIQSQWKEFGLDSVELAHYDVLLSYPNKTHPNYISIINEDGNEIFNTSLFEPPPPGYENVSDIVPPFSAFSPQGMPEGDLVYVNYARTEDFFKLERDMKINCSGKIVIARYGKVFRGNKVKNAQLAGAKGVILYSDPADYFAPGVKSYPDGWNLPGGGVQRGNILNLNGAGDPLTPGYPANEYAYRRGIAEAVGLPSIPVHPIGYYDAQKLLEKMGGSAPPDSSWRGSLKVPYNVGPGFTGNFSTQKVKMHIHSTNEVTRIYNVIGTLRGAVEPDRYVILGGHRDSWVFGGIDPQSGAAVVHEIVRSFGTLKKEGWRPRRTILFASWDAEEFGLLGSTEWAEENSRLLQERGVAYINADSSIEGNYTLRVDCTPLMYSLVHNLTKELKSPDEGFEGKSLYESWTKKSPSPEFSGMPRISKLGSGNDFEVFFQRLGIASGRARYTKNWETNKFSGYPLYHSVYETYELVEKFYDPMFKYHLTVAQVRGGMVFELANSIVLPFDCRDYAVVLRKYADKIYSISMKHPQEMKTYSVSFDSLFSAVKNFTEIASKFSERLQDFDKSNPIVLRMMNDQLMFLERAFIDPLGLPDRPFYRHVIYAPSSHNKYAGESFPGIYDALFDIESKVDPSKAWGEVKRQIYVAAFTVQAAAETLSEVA
Outline: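 KD, expressed as pKD, came from 1:1 Langmuir fits of reference- and buffer-blank-subtracted SPR data. The runs were single-cycle kinetics at 25° C in HBST/0.1% DMSO over human PSMA-Fc, captured to ~1000 RU on a peptide-coated CM5 surface and regenerated with 10 mM glycine pH 1.5.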

Row | IC50 [1] [nM] | Kd [2] [nM] | Structure (SMILES)
1 | < 200 | 12.6 to 126 | C[C@@H](O)[C@H](NC(=O)[C@@H](NC(=O)[C@@H]1CSSC[C@H](NC(=O)[C@H](Cc2ccccc2)NC(=O)C(C)(C)NC(=O)CN2CCC(NC(=O)CN3CCN(CC(=O)O)CCN(CC(=O)O)CCN(CC(=O)O)CC3)CC2)C(=O)N[C@@H](CCCCN)C(=O)N[C@@H](CCCNC(=N)N)C(=O)NC(C)(C)C(=O)N[C@@H](CC(N)=O)C(=O)N1)C(C)(C)C)C(N)=O [PSM-0261, DOTA-APAc-Aib-Phe-[Cys-Lys-Arg-Aib-Asn-Cys]-Tle-Thr-NH2] ({DOTA}-[X4][Aib]FCKR[Aib]NC[Tle]T-NH2; disulfide 4-9)
2 | < 200 | < 12.6 | CC(=O)N[C@H](C(=O)NC(C)(C)C(=O)N[C@@H](Cc1ccccc1)C(=O)N[C@H]1CSSC[C@@H](C(=O)N[C@H](C(=O)N[C@@H](CCC(=O)O)C(N)=O)C(C)(C)C)NC(=O)[C@H](CC(N)=O)NC(=O)C(C)(C)NC(=O)[C@H](CCCNC(=N)N)NC(=O)[C@H](CCCCN)NC1=O)[C@@H](C)O [PSM-0262, Ac-Thr-Aib-Phe-[Cys-Lys-Arg-Aib-Asn-Cys]-Tle-Glu-NH2] (Ac-T[Aib]FCKR[Aib]NC[Tle]E-NH2; disulfide 4-9)
3 | < 200 | < 12.6 | C[C@@H](O)[C@H](NC(=O)[C@@H](NC(=O)[C@@H]1CSSC[C@H](NC(=O)[C@H](Cc2ccc(Cl)cc2)NC(=O)C(C)(C)NC(=O)CN2CCC(NC(=O)CN3CCN(CC(=O)O)CCN(CC(=O)O)CCN(CC(=O)O)CC3)CC2)C(=O)N[C@@H](CCCCN)C(=O)N[C@@H](CCCNC(=N)N)C(=O)NC(C)(C)C(=O)N[C@@H](CC(N)=O)C(=O)N1)C(C)(C)C)C(N)=O [PSM-0263] ({DOTA}-[X4][Aib][Phe(4-Cl)]CKR[Aib]NC[Tle]T-NH2; disulfide 4-9)
4 | < 200 | < 12.6 | CC(=O)N[C@H](C(=O)NC(C)(C)C(=O)N[C@@H](Cc1cccc(C(F)(F)F)c1)C(=O)N[C@H]1CSSC[C@@H](C(=O)N[C@H](C(=O)N[C@H](C(N)=O)[C@@H](C)O)C(C)(C)C)NC(=O)[C@H](CC(N)=O)NC(=O)C(C)(C)NC(=O)[C@H](CCCNC(=N)N)NC(=O)[C@H](CCCCN)NC1=O)[C@@H](C)O [PSM-0264, Ac-Thr-Aib-Mtf-[Cys-Lys-Arg-Aib-Asn-Cys]-Tle-Thr-NH2] (Ac-T[Aib][Phe(3-CF3)]CKR[Aib]NC[Tle]T-NH2; disulfide 4-9)

The next lines start with the compound.

Row | Structure (SMILES) | IC50 [1] [nM] | Kd [2] [nM]
5 | CCCCNC(=O)N[C@H](C(=O)NC(C)(C)C(=O)N[C@@H](Cc1ccccc1)C(=O)N[C@H]1CSSC[C@@H](C(=O)N[C@H](C(=O)N[C@H](C(=O)N2CCC(CC(=O)N[C@H](CCCCNC(=O)CN3CCN(CC(=O)O)CCN(CC(=O)O)CCN(CC(=O)O)CC3)C(N)=O)CC2)[C@@H](C)O)C(C)(C)C)NC(=O)[C@H](CC(N)=O)NC(=O)C(C)(C)NC(=O)[C@H](CCCNc2ccccn2)NC(=O)[C@H](CCCCN)NC1=O)[C@@H](C)O [PSM-0258, nBuCAyl-Thr-Aib-Phe-[Cys-Lys-Opy-Aib-Asn-Cys]-Tle-Thr-Cmp-lys(DOTA)-NH] ({NHBu-CO}-T[Aib]FCK[Orn](Pyridin(2-yl))[Aib]NC[Tle]T[X1][dK](DOTA)-NH2; disulfide 4-9) | 200 to 1260 | 126 to 501
6 | C[C@@H](O)[C@H](NC(=O)[C@@H](NC(=O)[C@@H]1CSSC[C@H](NC(=O)[C@H](Cc2ccccc2)NC(=O)C(C)(C)NC(=O)[C@@H](NC(=O)CCC(=O)NCCCOCCOCCOCCCNC(=O)CN2CCN(CC(=O)O)CCN(CC(=O)O)CCN(CC(=O)O)CC2)[C@@H](C)O)C(=O)N[C@@H](CCCCN)C(=O)N[C@@H](CCCNC(=N)N)C(=O)NC(C)(C)C(=O)N[C@@H](CC(N)=O)C(=O)N1)C(C)(C)C)C(N)=O [PSM-0259, DOTA-Ttds-Thr-Aib-Phe-[Cys-Lys-Arg-Aib-Asn-Cys]-Tle-Thr-NH2] ({X3-Suc}-T[Aib]FCKR[Aib]NC[Tle]T-NH2; disulfide 4-9) | < 200 | < 12.6
7 | C[C@@H](O)[C@H](NC(=O)[C@@H](NC(=O)[C@@H]1CSSC[C@H](NC(=O)[C@H](Cc2ccc(Cl)cc2)NC(=O)C(C)(C)NC(=O)[C@@H](NC(=O)CC2CCN(C(=O)CN3CCN(CC(=O)O)CCN(CC(=O)O)CCN(CC(=O)O)CC3)CC2)[C@@H](C)O)C(=O)N[C@@H](CCCCN)C(=O)N[C@@H](CCCNC(=N)N)C(=O)N[C@H](CCC(=O)O)C(=O)N[C@@H](CC(N)=O)C(=O)N1)C(C)(C)C)C(N)=O [PSM-0260, DOTA-Cmp-Thr-Aib-Pcf-[Cys-Lys-Arg-glu-Asn-Cys]-Tle-Thr-NH2] ({DOTA}-[X1]T[Aib][Phe(4-Cl)]CKR[dE]NC[Tle]T-NH2; disulfide 5-10) | < 200 | < 12.6
